Results taken from patent US7666642B2, “Nematode fatty acid desaturase-like sequences” (Divergence, Inc., priority 2001, dated 2010).
Read-outs that look alike come from different tables or passages of the source.

Columns and labels:
[1] = tested on: isolated intestinal epithelial cells; conditions: cited from earlier work
[2] = tested on: everted hamster jejunal and ileal segments; conditions: cited from earlier work
[3] = tested on: Δ9 fatty acid desaturases; conditions: cited from earlier work
plants [4] = conditions: in vivo
C. elegans [5] = test: Rescue of C. elegans Δ12 FAT RNAi feeding phenotype by fatty acid methyl esters; format: in vivo; conditions: 3 mM added to the NGM media
Excerpt: RNAi by feeding: C. elegans can be grown on lawns of E. coli genetically engineered to produce double stranded RNA (dsRNA) designed to inhibit Δ12 FAT expression. Briefly, E. coli were transformed with a genomic fragment of a portion of the C. elegans Δ12 FAT gene sequence, specifically a fragment 651 nucleotides long, containing the entire first exon and terminating just before the conserved intron splice junction between the first exon and first intron. This construct encodes approximately the first 217 amino acids of the C. clegans Δ12 FAT gene. The 651 nucleotide genomic fragment was cloned into an E. coli expression vector between opposing T7 polymerase promoters. The clone was then transformed into a strain of E. coli that carries an IPTG-inducible T7 polymerase. As a control, E. coli was transformed with a gene encoding the Green Fluorescent Protein (GFP).
Feeding RNAi was initiated from C. elegans eggs or from C. elegans L4s.
The C. elegans Δ12 fatty acid desaturase (Fat2 protein) converts the mono-unsaturated oleic acid to the di-unsaturated fatty acid linoleic acid. The […] FAT RNAi prevents expression of the Δ12 fatty acid desaturase, which is predicted to cause a decrease in levels of linoleic acid in the nematode, leading to arrested development and death.

C. elegans [6] = test: Inhibitor studies: C. elegans cultures on NGM plates containing fatty acid methyl esters; format: in vivo; conditions: for Lifecycle impairments of C. elegans cultures: methyl ester on NGM plates with OP50 E. coli
Excerpt: Vernolic acid and ricinoleic acid are naturally occurring plant-produced fatty acid homologs that we predict to be specific inhibitors of Δ12 FAT enzymes. The addition of these compounds to living cultures of C. elegans is expected to mimic the effects of the Δ12 FAT RNAi experiments since, in each case, the phenotype observed should derive from the inhibition of the nematode Δ12 FAT. To explore this possibility, C. elegans cultures were started from eggs on NGM plates containing their E. coli food source and one of either 3 mM ricinolcic acid methyl ester or 3 mM vernolic acid methyl ester. Total eggs layed and hatch-rates of F1 and F2 individuals were followed and compared to nematode cultures grown in the presence of control fatty acids oleic acid methyl ester and linoleic acid methyl ester. C. elegans L4 larvae were added to NGM plates containing OP50 E. coli and one of the following methyl esters: oleic acid, linolcic acid, ricinoleic acid, vernolic acid or none. C. elegans L4 larvae growing on plates containing ricinoleic acid (FIG. 11) or vernolic acid (FIG. 12) methyl esters developed to mature adults more slowly than those on control plates containing oleic acid (FIG. 9) or linoleic acid (FIG. 10) and produced very few embryos (eggs).

plants [7] = test: Toxicity to plants (phytotoxicity); conditions: at least some plants
[8] = 3 mM methyl ester on NGM plates with OP50 E. coli

## CCCCCC[C@@H](O)C/C=C\CCCCCCCC(=O)O [Ricinoleic acid, reference compound]
[1]
  Cytotoxicity: cytotoxic
[2]
  Effect on water and electrolyte absorption: inhibitory effect

## CCCCCCCCC1=C(CCCCCCCC(=O)O)C1 [Sterculic acid]
[3]
  Inhibition of Δ9 fatty acid desaturases: potent inhibitor

## CCCCCC#CC/C=C\CCCCCCCC(=O)OC [crepenynic acid methyl ester]
Plants [4]
  Toxicity to plants: do not appear to be toxic (or are very much less toxic)

## CCCCC/C=C\C/C=C\CCCCCCCC(=O)OC [linoleic acid methyl ester, reference compound]
C. elegans [5]
  Rescue of the Δ12 FAT RNAi feeding phenotype: partial rescue
C. elegans [6]
  Lifecycle impairments of C. elegans cultures: no dramatic lifecycle impairments

## CCCCCCCCC1=C(CCCCCCC(=O)O)C1 [malvalate]
[3]
  Inhibition of Δ9 fatty acid desaturases: equally inhibitory

## CCCCCCCC/C=C\CCCCCCCC(=O)OC [oleic acid methyl ester, reference compound]
C. elegans [5]
  Rescue of the Δ12 FAT RNAi feeding phenotype: does not rescue
C. elegans [6]
  Lifecycle impairments of C. elegans cultures: no dramatic lifecycle impairments

## CCCCCC[C@@H](O)C/C=C/CCCCCCCC(=O)OC [ricinelaidic acid methyl ester]
Plants [7]
  Toxicity to plants: do not appear to be toxic (or are very much less toxic)

## CCCCCC[C@@H](O)C/C=C\CCCCCCCC(=O)OC [ricinoleic acid methyl ester]
Plants [7]
  Toxicity to plants: do not appear to be toxic (or are very much less toxic)
[2]
  Effect on water and electrolyte absorption: ineffective
C. elegans [6]; [8]
  Embryos (eggs) produced: very few
  Phenotype of young larvae from embryos that hatched: severe arrested phenotypes and did not develop to adults
C. elegans [6]; 3 mM methyl ester on NGM plates with OP50 E. coli, compared with oleic or linoleic acid control plates
  Development of L4 larvae to mature adults: more slowly
C. elegans [6]; methyl esters of fatty acid analogs
  Nematicidal activity: nematicidal
